The results in this text go back to ChEMBL document CHEMBL6109158, “Discovery of Novel Bifunctional Agents as Potent Androgen Receptor Antagonists and Degraders for the Treatment of Enzalutamide-Resistant Prostate Cancer” (J Med Chem, 2025).

SMILES strings stand for the structures.

In one data set the test system is CWR22R. The data set can be described thus: cells. The conditions noted are these: Homo sapiens, 22Rv1, […]. The data set is classed as functional, cell-based.
The nature of data set [1]: in vivo. To be noted: male, C57BL/6, mouse, iv, 1 mg/kg.
Description: Volume of distribution at steady state in male C57BL/6 mouse at 1 mg/kg, iv
The nature of data set [2]: in vivo. To be noted: male, C57BL/6, mouse, iv, 1 mg/kg. The source holds these as a separate data set.
Description: Clearance in male C57BL/6 mouse at 1 mg/kg, iv
Data set [3] can be described thus: in vivo. The conditions noted are these: male, C57BL/6, mouse, iv, 1 mg/kg. The source holds these as a separate data set.
Description: Half life in male C57BL/6 mouse at 1 mg/kg, iv
Data set [4] is described as follows: in vivo. To be noted: male, C57BL/6, mouse, iv, 1 mg/kg. This is another data set of the same source.
The nature of data set [5]: in vivo. The conditions noted are these: male, C57BL/6, mouse, brain, iv, 1 mg/kg.
Description: Ratio of drug concentration in male C57BL/6 mouse brain to plasma at 1 mg/kg, iv measured after 1 hr
The nature of data set [6]: in vivo. To be noted: male, C57BL/6, mouse, iv, 1 mg/kg. This is another data set of the same source.
Description: C0 in male C57BL/6 mouse at 1 mg/kg, iv
The next data set can be described thus: cells. The data set is classed as functional, cell-based. To be noted: Homo sapiens, Enzalutamide-resistant C4-2B.
The nature of data set [7]: in vitro. The conditions noted are these: mouse, microsomes.
Description: Metabolic stability in mouse liver microsomes assessed as half life
Data set [8] is described as follows: in vitro. The conditions noted are these: human, microsomes.
The next data set relates to LNCaP C4-2. Description: cells. The data set is classed as functional, cell-based. To be noted: Homo sapiens.
Another data set relates to LNCaP. Description: cells. Format: functional, cell-based. To be noted: Homo sapiens.
Data set [9] is described as follows: in vitro. The conditions noted are these: mouse, microsomes. The source holds these as a separate data set.
A short description of data set [10]: in vitro. The conditions noted are these: human, microsomes. The source holds these as a separate data set.

Description for CWR22R: Antiproliferative activity against human 22Rv1 cells assessed as inhibition of cell growth incubated for 7 days by celltiter-glo assay
Description for LNCaP C4-2: Antiproliferative activity against human C4-2 cells assessed as inhibition of cell growth incubated for 7 days by celltiter-glo assay

As to `C[C@](O)(Cn1ccc2cc(F)ccc21)C(=O)Nc1ccc(C#N)c(C(F)(F)F)c1`, it took 3.53 µM to reach half-maximal inhibition in the data set on CWR22R (IC50). In other words, the single-digit micromolar range.
In the data set with CWR22R, `COc1cc(C#N)ccc1N1C2CCC1CN(C[C@](C)(O)C(=O)Nc1ccc(C#N)c(C(F)(F)F)c1)C2` showed an IC50 of 4.12 µM. This IC50 and that of the compound before are within 1.5-fold of each other.
Same read-out and setting: the figure for `C[C@](O)(CN1C[C@@H]2C[C@H]1CN2c1ccc(C#N)cc1)C(=O)Nc1ccc(C#N)c(C(F)(F)F)c1` is 10 µM; for `Cc1cc(C#N)ccc1N1C2CCC1CN(C[C@](C)(O)C(=O)Nc1ccc(C#N)c(C(F)(F)F)c1)C2` it is 3.08 µM.
The same measure, in the same setting: next, `C[C@](O)(CN1CC2CCC(C1)N2c1cnc(C#N)nc1)C(=O)Nc1ccc(C#N)c(C(F)(F)F)c1`: 5.24 µM; `COc1c(C#N)ccc(NC(=O)[C@@](C)(O)CN2CC3CCC(C2)N3c2ccc(C#N)cc2)c1F`: 5.3 µM.
In “in vivo [1]”, `C[C@](O)(CN1CC2CCC(C1)N2c1ccc(C#N)cc1)C(=O)Nc1cnc(C#N)c(Cl)c1` gave a Vd of 1.42 L/kg. Further, the clearance in the data set “in vivo [2]” amounted to 16.2 mL/min/kg. For the same compound, the half-life in “in vivo [3]” is 96.6 min. Further, the AUC(0-t) in the data set “in vivo [4]” is 1030 ng·h/mL. Moreover, in “in vivo [5]”, the Kp at 1 h was 0.33. In addition, in the data set on CWR22R, the midpoint of inhibition, the IC50, lay at 1.68 µM. The same compound registered a C0 in “in vivo [6]” of 1140 ng/mL.
`C[C@](O)(CN1CC2CCC(C1)N2c1ccc(C#N)cn1)C(=O)Nc1ccc(C#N)c(C(F)(F)F)c1` registered an IC50 in the data set on CWR22R of 2.28 µM.
On to `COc1cc(NC(=O)[C@@](C)(O)CN2CC3CCC(C2)N3c2ccc(C#N)cc2)ccc1C#N`, for which the IC50 in the data set with CWR22R stood at 2.23 µM.
Regarding `C[C@](O)(CN1CC2CCC(C1)N2c1cnc(C#N)nc1)C(=O)Nc1cnc(C#N)c(C(F)(F)F)c1`, in the data set on CWR22R, the IC50 is 15.8 µM.
Consider `C[C@](O)(CN1CC2CCC(C1)N2Cc1ccc(C#N)cc1)C(=O)Nc1ccc(C#N)c(C(F)(F)F)c1`, for which, in the data set with CWR22R, the IC50 is 20.5 µM.
Same read-out and setting: next, `C[C@](O)(CN1CC2CCC(C1)N2c1ccc(C#N)cc1)C(=O)Nc1ccc([N+](=O)[O-])c(C(F)(F)F)c1`: 1.65 µM.
For the compound `C[C@](O)(CN1CC2CCC(C1)N2c1ccc(C#N)cc1)C(=O)Nc1ccc(C#N)c(Cl)c1`, the IC50 in “cells” amounted to 5.23 µM; in the data set with LNCaP C4-2, 1190 nM; in the data set on LNCaP, 1570 nM. Besides, the half-life was 12.2 min in the data set “in vitro [7]”, 9.95 min in “in vitro [8]” and 244 min in the data set “in vivo [3]”. This compound also gave a Vd in the data set “in vivo [1]” of 1.87 L/kg. Besides, in the data set “in vivo [2]”, the clearance came to 7.09 mL/min/kg. For the same compound, the AUC(0-t) in “in vivo [4]” amounted to 2330 ng·h/mL. The compound also yielded a Kp at 1 h in “in vivo [5]” of 0.55. In addition, the C0 in “in vivo [6]” was found to be 1420 ng/mL. Besides, the results for the microsomal CLint in “in vitro [9]” and in “in vitro [10]” were 114 µL/min/mg and 139 µL/min/mg, respectively.
In the data set on CWR22R, `C[C@](O)(CN1CC2CCC(C1)N2c1ncc(C#N)cn1)C(=O)Nc1ccc(C#N)c(C(F)(F)F)c1` gave an IC50 of 4.05 µM.
Same read-out and setting: next, `C[C@](O)(CN1CC2CCC(C1)N2c1ccc(F)cc1)C(=O)Nc1ccc(C#N)c(C(F)(F)F)c1`: 12.9 µM.
On the same count and under the same terms, the figure for `CNC(=O)c1ccc(N2C(=S)N(c3cnc(C#N)c(C(F)(F)F)c3)C(=O)C23CCC3)cc1F` [APALUTAMIDE] is more than 100 µM; for `N#Cc1ccc(O[C@H]2CC[C@H](NC(=O)c3ccc(N4CCC(CN5CCN(c6cc7c(cc6F)C(=O)N(C6CCC(=O)NC6=O)C7=O)CC5)CC4)nn3)CC2)cc1Cl` (some centres not stated) [BAVDEGALUTAMIDE] it is more than 100 µM.
Regarding `CC(O)c1cc(C(=O)N[C@@H](C)Cn2ccc(-c3ccc(C#N)c(Cl)c3)n2)n[nH]1` (some centres not stated) [DAROLUTAMIDE], the IC50 with CWR22R came out at 31.2 µM.
On the same count and under the same terms, next, `C[C@]12CC[C@H](O)CC1=CC[C@@H]1[C@@H]2CC[C@]2(C)C(n3cnc4ccccc43)=CC[C@@H]12` [GALETERONE]: 12 µM.
